# Test results from PubChem BioAssay (NCI).
#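 Values below derive from 48-hour exposures of cells grown in 96-well plates, with endpoints linearly interpolated between the two concentrations bracketing the appropriate inhibition level. TGI marks complete inhibition of growth.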
# Assays:
# Assay in all cases: growth of human tumour cells (NCI), 48 h
# OVCAR-3 ovarian = system: OVCAR-3 ovarian
# SNB-19 CNS = system: SNB-19 CNS
# SK-MEL-28 melanoma = system: SK-MEL-28 melanoma
# MCF7 breast = system: MCF7 breast
# KM12 colon = system: KM12 colon
# ACHN renal = system: ACHN renal
# NCI-H226 lung = system: NCI-H226 lung
# MDA-N = system: MDA-N
# COLO 205 colon = system: COLO 205 colon
# RPMI-8226 leukemia = system: RPMI-8226 leukemia
# CCRF-CEM leukemia = system: CCRF-CEM leukemia
# HCT-15 colon = system: HCT-15 colon
# SK-MEL-5 melanoma = system: SK-MEL-5 melanoma
# RXF 393 renal = system: RXF 393 renal
# SN12C renal = system: SN12C renal
# NCI-H522 lung = system: NCI-H522 lung
# NCI-H460 lung = system: NCI-H460 lung
# OVCAR-5 ovarian = system: OVCAR-5 ovarian
# HOP-92 NSCLC = system: HOP-92 NSCLC
# SF-539 CNS = system: SF-539 CNS
# A498 renal = system: A498 renal
# MALME-3M melanoma = system: MALME-3M melanoma
# A549 NSCLC = system: A549 NSCLC
# DU-145 prostate = system: DU-145 prostate
# CAKI-1 renal = system: CAKI-1 renal
# MOLT-4 leukemia = system: MOLT-4 leukemia
# MDA-MB-231 breast = system: MDA-MB-231 breast
# UACC-257 melanoma = system: UACC-257 melanoma
# OVCAR-8 ovarian = system: OVCAR-8 ovarian
# SF-268 CNS = system: SF-268 CNS
# 786-0 renal = system: 786-0 renal
# SK-OV-3 ovarian = system: SK-OV-3 ovarian
# NCI/ADR-RES ovarian = system: NCI/ADR-RES ovarian
# M14 melanoma = system: M14 melanoma
# TK-10 renal = system: TK-10 renal
# SK-MEL-2 melanoma = system: SK-MEL-2 melanoma
# U251 CNS = system: U251 CNS
# SNB-75 CNS = system: SNB-75 CNS
# SW-620 colon = system: SW-620 colon
# MDA-MB-435 = system: MDA-MB-435
# PC-3 prostate = system: PC-3 prostate
# HOP-62 NSCLC = system: HOP-62 NSCLC
# BT-549 breast = system: BT-549 breast
# IGROV1 ovarian = system: IGROV1 ovarian
# UO-31 renal = system: UO-31 renal
# SF-295 CNS = system: SF-295 CNS
# T-47D breast = system: T-47D breast
# HS 578T breast = system: HS 578T breast
# EKVX NSCLC = system: EKVX NSCLC
# K-562 leukemia = system: K-562 leukemia
# NCI-H23 lung = system: NCI-H23 lung
# OVCAR-4 ovarian = system: OVCAR-4 ovarian
# HCT-116 colon = system: HCT-116 colon
# HL-60(TB) leukemia = system: HL-60(TB) leukemia
# HT29 colon = system: HT29 colon
# UACC-62 melanoma = system: UACC-62 melanoma
# SR leukemia = system: SR leukemia
# LOX IMVI melanoma = system: LOX IMVI melanoma
# HCC-2998 colon = system: HCC-2998 colon
structure (smiles),measurement,setting,value
COC(NC(N)=O)C(=O)O (stereo not drawn),TGI,OVCAR-3 ovarian,> 100 µM
same,TGI,SNB-19 CNS,> 100 µM
same,TGI,SK-MEL-28 melanoma,> 100 µM
same,TGI,MCF7 breast,> 100 µM
same,TGI,KM12 colon,> 100 µM
same,TGI,ACHN renal,> 100 µM
same,TGI,NCI-H226 lung,> 100 µM
same,TGI,MDA-N,> 100 µM
same,TGI,COLO 205 colon,> 100 µM
same,TGI,RPMI-8226 leukemia,> 100 µM
same,TGI,CCRF-CEM leukemia,> 100 µM
same,TGI,HCT-15 colon,> 100 µM
same,TGI,SK-MEL-5 melanoma,> 100 µM
same,TGI,RXF 393 renal,> 100 µM
same,TGI,SN12C renal,> 100 µM
same,TGI,NCI-H522 lung,> 100 µM
same,TGI,NCI-H460 lung,> 100 µM
same,TGI,OVCAR-5 ovarian,> 100 µM
same,TGI,HOP-92 NSCLC,> 100 µM
same,TGI,SF-539 CNS,> 100 µM
same,TGI,A498 renal,> 100 µM
same,TGI,MALME-3M melanoma,> 100 µM
same,TGI,A549 NSCLC,> 100 µM
same,TGI,DU-145 prostate,> 100 µM
same,TGI,CAKI-1 renal,> 100 µM
same,TGI,MOLT-4 leukemia,> 100 µM
same,TGI,MDA-MB-231 breast,> 100 µM
same,TGI,UACC-257 melanoma,> 100 µM
same,TGI,OVCAR-8 ovarian,> 100 µM
same,TGI,SF-268 CNS,> 100 µM
same,TGI,786-0 renal,> 100 µM
same,TGI,SK-OV-3 ovarian,> 100 µM
same,TGI,NCI/ADR-RES ovarian,> 100 µM
same,TGI,M14 melanoma,> 100 µM
same,TGI,TK-10 renal,> 100 µM
same,TGI,SK-MEL-2 melanoma,> 100 µM
same,TGI,U251 CNS,> 100 µM
same,TGI,SNB-75 CNS,> 100 µM
same,TGI,SW-620 colon,> 100 µM
same,TGI,MDA-MB-435,> 100 µM
same,TGI,PC-3 prostate,> 100 µM
same,TGI,HOP-62 NSCLC,> 100 µM
same,TGI,BT-549 breast,> 100 µM
same,TGI,IGROV1 ovarian,> 100 µM
same,TGI,UO-31 renal,> 100 µM
same,TGI,SF-295 CNS,> 100 µM
same,TGI,T-47D breast,> 100 µM
same,TGI,HS 578T breast,> 100 µM
same,TGI,EKVX NSCLC,> 100 µM
same,TGI,K-562 leukemia,> 100 µM
same,TGI,NCI-H23 lung,> 100 µM
same,TGI,OVCAR-4 ovarian,> 100 µM
same,TGI,HCT-116 colon,> 100 µM
same,TGI,HL-60(TB) leukemia,> 100 µM
same,TGI,HT29 colon,> 100 µM
same,TGI,UACC-62 melanoma,> 100 µM
same,TGI,SR leukemia,> 100 µM
C/C(=N/NC(=S)Nc1cccc(Cl)c1)c1ccccn1,TGI,OVCAR-3 ovarian,12.3 µM
same,TGI,SNB-19 CNS,16.9 µM
same,TGI,SK-MEL-28 melanoma,16 µM
same,TGI,MCF7 breast,5.17 µM
same,TGI,KM12 colon,13.5 µM
same,TGI,LOX IMVI melanoma,9.49 µM
same,TGI,ACHN renal,8.13 µM
same,TGI,NCI-H226 lung,2.59 µM
same,TGI,MDA-N,15.5 µM
same,TGI,COLO 205 colon,5.18 µM
same,TGI,RPMI-8226 leukemia,17.8 µM
same,TGI,CCRF-CEM leukemia,> 15.9 µM
same,TGI,HCT-15 colon,16.1 µM
same,TGI,SK-MEL-5 melanoma,4 µM
same,TGI,RXF 393 renal,9.76 µM
same,TGI,SN12C renal,7.04 µM
same,TGI,NCI-H522 lung,2.41 µM
same,TGI,NCI-H460 lung,5.46 µM
same,TGI,OVCAR-5 ovarian,3.46 µM
same,TGI,HOP-92 NSCLC,11.1 µM
same,TGI,SF-539 CNS,3.35 µM
same,TGI,A498 renal,7.56 µM
same,TGI,MALME-3M melanoma,10 µM
same,TGI,A549 NSCLC,10.1 µM
same,TGI,DU-145 prostate,4.98 µM
same,TGI,CAKI-1 renal,11.8 µM
same,TGI,MOLT-4 leukemia,1.47 µM
same,TGI,MDA-MB-231 breast,10.3 µM
same,TGI,UACC-257 melanoma,2.41 µM
same,TGI,OVCAR-8 ovarian,9.29 µM
same,TGI,SF-268 CNS,12.5 µM
same,TGI,786-0 renal,12.9 µM
same,TGI,SK-OV-3 ovarian,10.4 µM
same,TGI,NCI/ADR-RES ovarian,4.58 µM
same,TGI,M14 melanoma,3.82 µM
same,TGI,TK-10 renal,10.4 µM
same,TGI,SK-MEL-2 melanoma,8.92 µM
same,TGI,U251 CNS,8.26 µM
same,TGI,SNB-75 CNS,11.7 µM
same,TGI,SW-620 colon,17.9 µM
same,TGI,MDA-MB-435,15.4 µM
same,TGI,PC-3 prostate,15.1 µM
same,TGI,HOP-62 NSCLC,3.5 µM
same,TGI,BT-549 breast,16 µM
same,TGI,IGROV1 ovarian,9.29 µM
same,TGI,UO-31 renal,5.03 µM
same,TGI,SF-295 CNS,9.39 µM
same,TGI,T-47D breast,1.05 µM
same,TGI,HS 578T breast,10.1 µM
same,TGI,EKVX NSCLC,3.33 µM
same,TGI,K-562 leukemia,2.85 µM
same,TGI,NCI-H23 lung,9.97 µM
same,TGI,OVCAR-4 ovarian,16.9 µM
same,TGI,HCC-2998 colon,17.5 µM
same,TGI,HCT-116 colon,12.2 µM
same,TGI,HL-60(TB) leukemia,0.5 µM
same,TGI,HT29 colon,13.9 µM
same,TGI,UACC-62 melanoma,2.49 µM
same,TGI,SR leukemia,1.99 µM
Cc1ccc(/C(O)=C/c2nc3cccnc3[nH]c2=O)cc1,TGI,OVCAR-3 ovarian,> 100 µM
same,TGI,SNB-19 CNS,> 100 µM
same,TGI,SK-MEL-28 melanoma,> 100 µM
same,TGI,MCF7 breast,> 100 µM
same,TGI,KM12 colon,> 100 µM
same,TGI,LOX IMVI melanoma,> 100 µM
same,TGI,ACHN renal,> 100 µM
same,TGI,NCI-H226 lung,> 100 µM
same,TGI,MDA-N,> 100 µM
same,TGI,COLO 205 colon,> 100 µM
same,TGI,RPMI-8226 leukemia,> 100 µM
same,TGI,CCRF-CEM leukemia,> 100 µM
same,TGI,HCT-15 colon,> 100 µM
same,TGI,SK-MEL-5 melanoma,> 100 µM
same,TGI,RXF 393 renal,80.1 µM
same,TGI,SN12C renal,> 100 µM
same,TGI,NCI-H522 lung,> 100 µM
same,TGI,NCI-H460 lung,> 100 µM
same,TGI,OVCAR-5 ovarian,> 100 µM
same,TGI,HOP-92 NSCLC,> 100 µM
same,TGI,SF-539 CNS,> 100 µM
same,TGI,A498 renal,> 100 µM
same,TGI,MALME-3M melanoma,> 100 µM
same,TGI,A549 NSCLC,> 100 µM
same,TGI,DU-145 prostate,> 100 µM
same,TGI,CAKI-1 renal,> 100 µM
same,TGI,MOLT-4 leukemia,> 100 µM
same,TGI,MDA-MB-231 breast,> 100 µM
same,TGI,UACC-257 melanoma,> 100 µM
same,TGI,OVCAR-8 ovarian,> 100 µM
same,TGI,SF-268 CNS,> 100 µM
same,TGI,786-0 renal,> 100 µM
same,TGI,SK-OV-3 ovarian,> 100 µM
same,TGI,NCI/ADR-RES ovarian,> 100 µM
same,TGI,M14 melanoma,> 100 µM
same,TGI,TK-10 renal,> 100 µM
same,TGI,SK-MEL-2 melanoma,> 100 µM
same,TGI,U251 CNS,> 100 µM
same,TGI,MDA-MB-435,> 100 µM
same,TGI,PC-3 prostate,> 100 µM
same,TGI,HOP-62 NSCLC,85.9 µM
same,TGI,BT-549 breast,> 100 µM
same,TGI,IGROV1 ovarian,> 100 µM
same,TGI,UO-31 renal,> 100 µM
same,TGI,SF-295 CNS,> 100 µM
same,TGI,T-47D breast,> 100 µM
same,TGI,HS 578T breast,> 100 µM
same,TGI,EKVX NSCLC,> 100 µM
same,TGI,K-562 leukemia,> 100 µM
same,TGI,NCI-H23 lung,> 100 µM
same,TGI,OVCAR-4 ovarian,> 100 µM
same,TGI,HCC-2998 colon,> 100 µM
same,TGI,HCT-116 colon,> 100 µM
same,TGI,HL-60(TB) leukemia,> 100 µM
same,TGI,HT29 colon,> 100 µM
same,TGI,UACC-62 melanoma,> 100 µM
same,TGI,SR leukemia,> 100 µM
